Experimental findings from patent publication US11325916B1, “Spiropyrrolidine derived antiviral agents” (priority 2021, dated 2022) are described below.

Read-outs that look alike come from different tables or passages of the source.

For assay [1], the system named is 229E human corona virus (hCoV). In words: 229E Live Virus Assay (MRC-5 cells, CPE, ATPlite readout). Type of assay: cell-based, hCoV-229E. Particulars: Human coronavirus 229E, MRC5, 144 h, read-out: 229E EC50. Background: ATP-based viability assays read luminescence as a measure of living cells.
Another assay addresses SARS-CoV-2 3CL-protease (Severe acute respiratory syndrome coronavirus 2 (2019-nCoV) (SARS-CoV-2), UniProt P0DTD1). In words: SARS-CoV-2 3C-Like (3CL) Protease Fluorescence Assay (FRET). The assay is classed as biochemical.

A word on the EC50: it is the midpoint of the concentration-response curve. As usually defined, the IC50 is the concentration that gives 50% inhibition. Read a high IC50 as a need for much substance. With `COc1cc(C(=O)N[C@@H](CC2CC2)C(=O)N(C)[C@@H](CC(C)(C)C)C(=O)N2C[C@]3(C[C@H]2C#N)C(=O)Nc2ccccc23)cc2cn(C3CC3)nc12` [Example 123], the EC50 in assay [1] was in the range of 0.1 to 1 µM. The molecule further gave an IC50 on SARS-CoV-2 3CL-protease below 100 nM.
Consider `CC(C)C[C@@H](C(=O)N1C[C@]2(C[C@H]1C#N)C(=O)Nc1ccccc12)N(C)C(=O)[C@H](CC1CC1)NC(=O)c1ccc(F)cc1` [Example 17], for which the EC50 in assay [1] is below 0.1 µM. Also, at SARS-CoV-2 3CL-protease, the half-inhibitory concentration (IC50) is below 100 nM.
For `CN(C(=O)[C@H](CC1CC1)NC(=O)C1COC1)[C@@H](CC(C)(C)C)C(=O)N1C[C@]2(C[C@H]1C#N)C(=O)Nc1ccccc12` [Example 122], in that order: below 0.1 µM and below 100 nM.
Regarding `CC(C)[C@H](NC(=O)c1ccc(F)c(F)c1)C(=O)N(C)[C@@H](CC(C)(C)C)C(=O)N1C[C@]2(C[C@H]1C#N)C(=O)Nc1ccccc12` [Example 107], the EC50 in assay [1] fell in the range of 0.1 to 1 µM. For the same molecule, the IC50 on SARS-CoV-2 3CL-protease was below 100 nM.
Take `CC(C)OC(=O)NC(C(=O)N1CCC[C@H]1C(=O)N1C[C@]2(C[C@H]1C#N)C(=O)Nc1ccccc12)C(C)(C)C` (some centres unmarked) [Example 59]: the EC50 in assay [1] is above 1 µM. This molecule also displayed a concentration for half-maximal inhibition (IC50) on SARS-CoV-2 3CL-protease above 1000 nM.
Taken in the same sequence, the figures for `CN(C(=O)[C@H](Cc1ccc(F)cc1)NC(=O)OCc1ccccc1)[C@@H](CC(C)(C)C)C(=O)N1C[C@]2(C[C@H]1C#N)C(=O)Nc1ccccc12` [Example 5] were below 0.1 µM and below 100 nM.
With `Cc1cc(C(=O)N[C@@H](Cc2ccc(F)cc2)C(=O)N(C)[C@@H](CC(C)C)C(=O)N2C[C@]3(C[C@H]2C#N)C(=O)Nc2ccccc23)no1` [Example 4], the EC50 in assay [1] (MRC-5 cells, hCoV-229E MOI 0.05, 6 days at 34° C., ATPlite, duplicate, ranges defined in μM) was below 0.1 µM. The same molecule registered an IC50 at SARS-CoV-2 3CL-protease below 100 nM.
Consider `CN(C(=O)[C@H](Cc1ccc(F)cc1)N1CCCNC1=O)[C@@H](CC(C)(C)C)C(=O)N1C[C@]2(C[C@H]1C#N)C(=O)Nc1ccccc12` [Example 69], for which the EC50 in assay [1] is 0.1 to 1 µM. At SARS-CoV-2 3CL-protease, this molecule displayed an IC50 below 100 nM.
In the case of `CC(C)(C)C(NCc1cc(F)c(F)cc1F)C(=O)N1CCC[C@H]1C(=O)N1C[C@]2(C[C@H]1C#N)C(=O)Nc1ccccc12` (some centres unmarked) [Example 61], the EC50 in assay [1] is above 1 µM. The same molecule came in with an IC50 against SARS-CoV-2 3CL-protease above 1000 nM.
As to `CC(C)[C@H](NC(=O)c1cc(F)c(F)c(F)c1)C(=O)N(C)[C@@H](CC(C)(C)C)C(=O)N1C[C@]2(C[C@H]1C#N)C(=O)Nc1ccccc12` [Example 108], the EC50 in assay [1] was in the range of 0.1 to 1 µM. This molecule registered an IC50 against SARS-CoV-2 3CL-protease below 100 nM.
For the molecule `CN(C(=O)[C@H](CC1CC1)N1CCOC1=O)[C@@H](CC(C)(C)C)C(=O)N1C[C@]2(C[C@H]1C#N)C(=O)Nc1ccccc12` [Example 72], the EC50 in assay [1] is below 0.1 µM. The same molecule returned an IC50 on SARS-CoV-2 3CL-protease below 100 nM.
Taken in the same sequence, the figures for `C[C@H](NC(=O)C(F)(F)F)C(=O)N(C)[C@@H](CC(C)(C)C)C(=O)N1C[C@]2(C[C@H]1C#N)C(=O)Nc1ccccc12` [Example 128] were below 0.1 µM and below 100 nM.
As to `CN(C(=O)[C@H](Cc1ccc(F)cc1)N1CCOC1=O)[C@@H](CC(C)(C)C)C(=O)N1C[C@]2(C[C@H]1C#N)C(=O)Nc1ccccc12` [Example 52], in assay [1], the EC50 is below 0.1 µM. The molecule further gave an IC50 on SARS-CoV-2 3CL-protease below 100 nM.
As to `CN(C(=O)[C@H](Cc1ccc(F)cc1)n1cc(-c2ccccc2)nn1)[C@@H](CC(C)(C)C)C(=O)N1C[C@]2(C[C@H]1C#N)C(=O)Nc1ccccc12` [Example 54], the EC50 in assay [1] was below 0.1 µM. Also, on SARS-CoV-2 3CL-protease, the IC50 is below 100 nM.
`CC(C)C[C@@H](C(=O)N1C[C@]2(C[C@H]1C#N)C(=O)Nc1ccccc12)N(C)C(=O)[C@H](CC1CC1)NC(=O)OCc1ccccc1` [Example 14]: the EC50 in assay [1] was below 0.1 µM. Moreover, the IC50 against SARS-CoV-2 3CL-protease was below 100 nM.
For `CN(C(=O)[C@H](CC1CC1)NC(=O)NC1CC1)[C@@H](CC(C)(C)C)C(=O)N1C[C@]2(C[C@H]1C#N)C(=O)Nc1ccccc12` [Example 85], in that order: below 0.1 µM and below 100 nM.
